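Following 48 hours of exposure in 96-well plates, responses at five concentrations were used to interpolate endpoints linearly. Here, GI50 denotes the concentration required for 50% inhibition of growth. TGI is the concentration that stops growth completely.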
Assays:
Test in all cases: NCI anticancer screen, dose series, 48 h
SR leukemia = tested on: SR leukemia
MDA-MB-435 = tested on: MDA-MB-435
MALME-3M melanoma = tested on: MALME-3M melanoma
MDA-MB-231 breast = tested on: MDA-MB-231 breast
HCT-116 colon = tested on: HCT-116 colon
NCI-H23 lung = tested on: NCI-H23 lung
SK-OV-3 ovarian = tested on: SK-OV-3 ovarian
UO-31 renal = tested on: UO-31 renal
T-47D breast = tested on: T-47D breast
SNB-75 CNS = tested on: SNB-75 CNS

Row | Structure (SMILES) | GI50 (SR leukemia) [µM] | TGI (SR leukemia) [µM] | GI50 (MDA-MB-435) [µM] | TGI (MDA-MB-435) [µM] | GI50 (MALME-3M melanoma) [µM] | TGI (MALME-3M melanoma) [µM] | GI50 (MDA-MB-231 breast) [µM] | TGI (MDA-MB-231 breast) [µM] | GI50 (HCT-116 colon) [µM] | TGI (HCT-116 colon) [µM] | GI50 (NCI-H23 lung) [µM] | TGI (NCI-H23 lung) [µM] | GI50 (SK-OV-3 ovarian) [µM] | TGI (SK-OV-3 ovarian) [µM] | GI50 (UO-31 renal) [µM] | TGI (UO-31 renal) [µM] | GI50 (T-47D breast) [µM] | TGI (T-47D breast) [µM] | GI50 (SNB-75 CNS) [µM] | TGI (SNB-75 CNS) [µM]
1 | COc1cc(-c2cc(/C=C/C(=O)c3ccc(F)c(F)c3)[nH]n2)cc(OC)c1OC | 2.92 | > 100 | 2.88 | 13.3 | 2.96 | 9.4 | 1.64 | 4.58 | 4 | 13.9 | 2.6 | 8.5 | 3.53 | 58.6 | 2.63 | 14.2 | 2.45 | 27 | – | –
2 | Cc1cc(=O)oc2ccc(OC/C=C3\CCC(=O)O3)cc12 | – | – | 7.65 | 22.8 | 1.16 | 16.9 | 13.2 | 27 | 3.82 | 15.1 | 10.4 | 25.2 | 13.1 | 26.2 | 2.09 | 10.2 | 2.6 | 19.6 | 1.87 | 12.3
3 | C[C@@]1([C@H](OC(=O)c2ccccc2)C(N)=O)CO1 | – | – | 17.8 | 36 | 28.3 | 58 | 14.9 | 41.8 | 17.5 | 58.6 | 20.2 | 61.5 | 28.3 | 66 | 20.2 | 51.8 | 30.4 | 83.3 | 22.8 | 50.6
4 | Oc1ccc(Br)cc1C=Nc1cccc(C(F)(F)F)c1 | – | – | – | > 100 | – | 75.5 | – | > 100 | – | > 100 | – | > 100 | – | > 100 | – | > 100 | – | > 100 | – | > 100
5 | Cc1ccccc1N=Nc1c(O)ccc2ccccc12 | – | – | – | > 100 | – | > 100 | – | > 100 | – | > 100 | – | > 100 | – | > 100 | – | > 100 | – | > 100 | – | > 100
6 | O=C1CC2OCC=C3CN4CCC56c7ccccc7N1C5C2C3CC46O (configuration not stated) | – | – | – | > 100 | – | > 100 | – | > 100 | – | > 100 | – | > 100 | – | > 100 | – | > 100 | – | > 100 | – | > 100
7 | COc1cc2cc(Oc3ccc(NC(=O)Nc4cc(C(F)(F)F)cc(C(F)(F)F)c4)cc3)c(C)nc2cc1OCCN1CCOCC1 | – | – | 1.9 | 6.72 | 1.2 | 3.79 | 1.7 | 6.45 | 1.42 | 5.33 | 1.66 | 6.69 | 2.09 | 8.5 | 1.01 | 4.06 | 2.04 | 10.2 | 1.02 | 4.48
8 | Clc1nccc2c(-c3csc(-c4c[nH]c5ccc(Br)cc45)n3)c[nH]c12 | 1.27 | > 100 | 3.43 | 13 | – | – | 1.68 | 4.62 | 2.35 | 10.5 | 2.42 | 8.57 | 2.78 | 8.27 | 0.932 | 11.5 | 3.12 | 18 | 2.37 | 10.9
9 | NC(N)=N/N=C/c1c(-c2ccsc2)nc2n1CCS2 | 12.1 | 28.8 | 19.8 | 47.9 | – | – | 28.1 | 82.1 | 14.3 | 27.3 | 23.8 | 80 | 35.4 | > 100 | 65.5 | > 100 | 30 | 66.3 | – | –
10 | O=C(CS(=O)(=O)c1nc2ccccc2nc1-c1ccccc1)Nc1ccc(F)cc1 | – | – | 88 | > 100 | 80.7 | > 100 | 34.7 | > 100 | 25.7 | > 100 | > 100 | > 100 | > 100 | > 100 | 59.1 | > 100 | 56.6 | > 100 | > 100 | > 100
11 | Cn1cc(/C=C\[N+](=O)[O-])c2ccccc21 | – | – | 27.7 | 84.7 | > 100 | > 100 | 23.4 | 78.8 | 19 | 43 | 74.7 | > 100 | > 100 | > 100 | > 100 | > 100 | 55.6 | > 100 | 26.2 | 75.8
12 | COc1cccc(/C=C/C(=O)c2ccc3cc(OC)ccc3c2)c1 | 10.1 | > 50 | 7.38 | 19 | – | – | 8.95 | 22.9 | 9.21 | 16.2 | 11.6 | 21 | 10.7 | 22.7 | 9.25 | 19 | 10.7 | 25.7 | 0.066 | 14.6

From PubChem BioAssay (NCI)
